Data: patent US7811778B2, “Methods of screening for gastrointestinal cancer” (Vanderbilt University, priority 2006, dated 2010)
“And” between values parts separate entries of the source, which are not always exact repeats. Equal values may be shown once. “Also recorded” adds a separate entry of the source.

Key:
emerging SPEM cells = assay: Quantitative PCR of transcripts in microdissected cells during emergence of SPEM; assay type: in vivo, gastrin-deficient mice
Description: Total RNA isolated from laser-capture microdissected cell collections from the stomachs of normal and DMP-777 1-day-treated and DMP-777 3-day—treated gastrin-deficient mice was analyzed by quantitative PCR assays. Reverse transcription from each total RNA sample was performed using random primers and Quantiscript Reverse transcriptase (Qiagen. Valencia, Calif.), for 30 minutes at 42° C. Quantitative real-time PCR was performed with a 3-step method using the Bio-Rad iCycler iQ real-time PCR detection system (Bio-Rad Laboratories, Hercules, Calif.). Each reaction was carried out in a 50 μL mixture consisting of QuantiTect SYBR Green PCO Master Mix (Qiagen), and 1 μL of template cDNA. The PCR conditions for quantitative real-time PCR were; 95° C. for 10 minutes 45 cycles of 94° C. for 15 seconds, 60° C. for 30 seconds, and 72° C. for 30 seconds. Quantitation of cDNA template in each sample was determined using the comparative threshold cycle (CT) method using GAPDH as a control, as described previously (Nomura S, Baxter S, Yamaguchi T, Leys C, Vartapetian A B, Fox J G, Lee J R, Wang T C, Goldenring J R. Relationship of spasmolytic polypeptide expressing metaplasia (SPEM) to pre-neoplasia in H. felis-infected mice. Gastroenterology 2004; 127:582-594). Statistical comparisons of the mean ΔΔCT between groups were determined using the Mann-Whitney U Test
However, by quantitative PCR assays, TFF2 levels were elevated greater than 7-fold in emerging SPEM from DMP-777 treated animals (FIG. 5).

fundic mucosa = assay: Immunohistochemistry / immunofluorescence of stomachs of DMP-777-treated mice; assay type: in vivo, gastrin-deficient mice
Description: Excised stomachs from Gastrin-deficient mice treated with DMP-777 or untreated controls embedded in paraffin were used for immunohistochemistry analysis Stomachs from C57BL/6 wild-type mice and sections from H. felis-infected C57BL/6 mice (infected for 6 months) were also examined with staining as a comparison. For immunohistochemistry, except for Mist1 staining, deparaffinized sections were pretreated with antigen retrieval using Target Retrieval solution (DakoCytomation, Glostrup, Denmark) at 120° C. for 15 minutes, followed by immediate cooling using iced water. For immunohistochemistry of Mist1, Trilogy antigen retrieval solution (Cell Marque, Austin. Tex.) was used during the antigen retrieval procedure. Sections were treated with 2% blocking serum and then incubated with the primary antibody overnight at 4° C. Immunostaining was performed with the following primary antibodies; murine monoclonal immunoglobulin M (IgM) anti-trefoil factor family 2 (TFF2, a gift from Sir Nicholas Wright, Cancer Research UK; 1:1000); rabbit anti-Mist1 (1:2000); murine monoclonal anti-H/K-ATPase (a gift from Dr. Adam J. Smolka, Medical University of South Carolina; 1:100,000); rabbit anti-HE4 (1:2000); rabbit anti-intrinsic factor (a gift from Dr. David Alpers, Washington University, St. Louis; 1:2000);, goat anti-Intrinsic factor (1:2000): rabbit anti-MCM3 (1:2000); rat monoclonal anti-Ki67 (TEC-3, DakoCytomation; 1:200).
For immunofluorescence analysis, Cy3-goat anti-mouse IgM antibody, Cy5-goat anti-mouse IgG antibody (Jackson ImmunoResearch, West Grove, Pa.) and Alexa488 goat anti-rabbit IgG (Invitrogen, Carlsbad, Calif.) were used. PROLONG® Gold Antifade Reagent with DAPI (Invitrogen) was used for nuclear counterstain and mounting medium.
For immunohistochemistry with detection with diaminobenzidine, the sections were incubated with biotinylated secondary antibody followed by horseradish peroxidase-conjugated streptavidin. Chromogen was developed with diaminobenzidine (Biogenex, San Ramon, Calif.). For immunohistochemistry with alkaline-phosphatase detection, the sections were incubated with biotinylated secondary antibody followed by alkaline-phosphatase-conjugated avidin-biotin complex. Chromogen was developed with VECTOR® Red Substrate (Vector Laboratories, Burlingame, Calif.). All sections were counterstained with Gill's hematoxylin.
Sections were viewed and photographed on Zeiss AXIOPHOT® microscope equipped with an AXIOVISION® digital imaging system (Zeiss) or FLUOVIEW® FV1000 confocal microscope system (Olympus).

[1] = test system: chief cells / SPEM cells at the bases of fundic glands; assay: Electron microscopy of gastric fundic region; assay type: in vivo; details: gastrin-deficient mice treated for 3 days with DMP-777
Description: Fresh specimens from the gastric fundic region of untreated controls and 3-day DMP-777 treated gastrin-deficient mice fixed for 2.5 hour on ice in 2.5% glutaraldehyde, 0.1 M Cacodytate Buffer in PBS. The samples were fixed overnight at 4° C. in 1% osmium tetroxide (OSO4) and 0.1M Cacodylate Buffer. Subsequently, the samples were subjected to an ethanol dehydration series and embedded in Spurrs resin. 50˜100 nm thin sections were cut and collected on 200-mesh, formvar-coated copper grids. After drying overnight, the grids were contrast stained with 2% depleted Uranyl Acetate (UA) and then stained with saturated lead citrate. Samples were examined on a Philips CM12 Electron Microscope.

parietal cells = details: cited from earlier work
[2] = microdissected cells, DMP-777 1 or 3 days vs untreated chief cells

CCC[C@@H](NC(=O)N1C(=O)C(CC)(CC)[C@@H]1Oc1ccc(C(=O)N2CCN(C)CC2)cc1)c1ccc2c(c1)OCO2 [DMP-777]
TFF2 levels by quantitative PCR (emerging SPEM cells; emerging SPEM from DMP-777 treated animals vs untreated chief cells): greater than 7 fold
G1/S associated transcripts MCM3, MCM5, MCM7 and ATF3 by quantitative PCR (emerging SPEM cells; [2]): up-regulation of G1/associated transcripts was confirmed
ST3Gal6 transcript by quantitative PCR (emerging SPEM cells; [2]): down-regulation ST3Gal6 was confirmed
transcripts for putative soluble mediators HE4 and IL1RN by quantitative PCR (emerging SPEM cells; [2]): up-regulation of transcripts for putative soluble mediators was also confirmed
quantification of Ki-67 staining (FIG. 6F) (fundic mucosa; 1 to 14 days of treatment, *p<0.05 at 7 days): smaller increase, which was only significant at 7 days of treatment
HE4 expression in SPEM cells at the bases of fundic glands (immunostaining) (fundic mucosa; DMP-777 treated gastrin-deficient mice): prominent up-regulation
TACC3 expression in cells at the bases of gastric glands (fundic mucosa; after only one day of DMP-777 treatment): TACC3 expression was evident
HE4 immunoreactivity in SPEM (fundic mucosa; after only one day of treatment): markedly increased
quantification of MCM3 staining (FIG. 6F) (fundic mucosa; days 3-14 of treatment, **p<0.01, ***p<0.001): significant increase
TFF2 and intrinsic factor staining in cells at the bases of fundic glands (fundic mucosa; gastrin deficient mice treated for 3 days with DMP-777): SPEM cells expressing two separate populations of TFF2 and intrinsic factor staining granules were present
Ki67 positive cell numbers (fundic mucosa; gastrin-deficient mice after DMP-777 treatment): only a small increase
number of Mist1 immunoreactive cells at the bases of glands (fundic mucosa; gastrin-deficient mice treated with DMP-777 for three days): decreased
number of MCM3 positive cells (fundic mucosa; gastrin-deficient mice, after 1 day of DMP-777, remained elevated through 14 days): increased
TACC3 expression in SPEM cells at the bases of fundic glands (fundic mucosa; treatment with DMP-777 for 3 days): strongly up-regulated
granule morphology of SPEM cells at the bases of fundic glands (electron microscopy) [1]: heterogeneous set of granule morphologies
morphological evidence of apoptosis (electron microscopy) [1]: no morphological evidence of apoptosis
inflammatory infiltrate (parietal cells; DMP-777 treated animals): absence of significant inflammatory infiltrate
induction of SPEM in gastrin-deficient (knockout) mice (parietal cells; gastrin knockout mice): rapid induction of metaplasia after only one day of DMP-777 treatment; also recorded: develop SPEM after only one dose of DMP-777; also recorded: develop SPEM after only a single dose of DMP-777
surface cell (foveolar) hyperplasia in response to DMP-777 (parietal cells; gastrin knockout mice): do not develop surface cell hyperplasia
cells expressing both intrinsic factor and TFF2 (dual expressing cells) (parietal cells; gastrin-deficient mice, after only one day of treatment): rapid increase in dual expressing cells
loss of parietal cells (parietal cells; mice or rats, high doses of oral DMP-777 (>200 mg/kg/d), three days of administration): rapid loss of parietal cells
time of oxyntic atrophy until SPEM develops in the fundus (parietal cells; mice or rats, oral DMP-777 >200 mg/kg/d): 7 to 10 days
dysplastic lesions (parietal cells; mice or rats, prolonged administration of drug for up to a year): no dysplastic lesions are ever observed
time to loss of acid-secreting parietal cells (parietal cells; rodents): within one to three days
days of treatment required for SPEM in wild type C57BL/6 mice (parietal cells; wild type C57BL/6 mice): 7 to 10 days and 10 to 14 days
